Laboratory results published in patent publication US8206704B2, “Use of GCC ligands” (priority 2003, dated 2012).
Entries after “also recorded” stand apart in the source; their conditions may differ. Where two headings read alike, the source gives them in different places.

Key:
ST receptors = ST receptors (Homo sapiens, UniProt P25092); conditions: about; cited from earlier work
[1] = tested on: human T84 colon cancer cells; test: Perforated whole-cell patch-clamp current measurements; type: cell-based
Protocol: The perforated mode of the whole-cell patch-clamp recording was applied to human T84 colon cancer cells. Membrane potential was controlled through the electrical access obtained by membrane perforation induced by amphotericin B (9, 10). The pipette solution supplemented by amphotericin B ([…]) contained: 140 mM KCl, 1 mM MgCl2, 5 mM EGTA, and 20 mM Hepes-KOH (pH 7.3). The bath solution contained (in mM): 136.5 mM NaCl, 5.4 mM KCl, 1.8 mM CaCl2, 0.5 mM MgCl2, 5.5 mM glucose, and 5 mM Hepes-NaOH (pH 7.4). Voltage-clamp recordings were performed with an Axopatch 1-C patch-clamp amplifier (Axon Instruments, Foster City, Calif.) at 31±1° C. using an HCC-100 temperature controller (Dagan Instruments, Minneapolis; ref. 19).

T84 cells [2] = test: DNA synthesis ([methyl-3H]thymidine incorporation), tumor cell proliferation; type: cell-based, human
Protocol: (§1) T84 (passages 50-70) and SW480 (passage 100-120) human colon carcinoma cells, obtained from the American Type Culture Collection, were maintained at 37° C. (5% CO2) in DMEM/F12 containing 2.5 mM L-glutamine, 100 units/ml penicillin, 100 μg/ml streptomycin, and 10% (vol/vol) FBS.
(§2) Exponentially growing cancer cells (˜60% confluent in 96-well plates) were synchronized by serum starvation in Eagle's minimal essential medium (EMEM) for 48 h, followed by proliferative induction with 10 mM L-glutamine (in EMEM) for 24 h. ST and other agents were added to cells 15 min before 0.2 μCi per well (1 Ci=37 GBq) of [methyl-3H]thymidine, which was added for 3 h, followed by quantification of [3H]thymidine incorporation into DNA (15).

SW480 cells = test: as above; type: cell-based, human; conditions: SW480 cells that do not express GC-C, ST 1 μM
Protocol: as §1, §2

GCC-bearing cells = test: Pre-clinical cell cycle analysis; type: cell-based; conditions: ST alone
[3] = tested on: [cGMP]i and intracellular cAMP in T84 cells; test: Cyclic nucleotide (cGMP, cAMP) quantification by ELISA or RIA; type: cell-based, human
Protocol: cGMP and cAMP were quantified in exponentially growing T84 cells (˜60% confluent in 96-well plates) employing ELISA (Amersham Pharmacia) or RIA. In experiments employing ELISA, media was aspirated, reactions were terminated by the addition of a lysis solution (200 μl per well) containing 0.5% dodecyltrimethylammonium bromide, and aliquots (100 μl) from each well were processed for cyclic nucleotide determinations. In experiments employing RIA, reactions were terminated with ice-cold 100% ethanol, and supernatants were separated from pellets by centrifugation and processed for cGMP determinations (8).

[4] = tested on: human T84 colon cancer cells; test: Perforated whole-cell patch-clamp current measurements; type: cell-based; conditions: Ca-free solution, n=5
[5] = tested on: matrix metalloproteinase 9 release from human colorectal cancer cells; test: Release of matrix metalloproteinase 9 (MMP 9 activity, western blot); type: cell-based; conditions: ST 1 micromolar
Excerpt: Preventing the secretion of this digestive enzyme will inhibit the ability of these tumor cells to invade the wall of the intestine. […] ST did this at a concentration of 1 micromolar.

[6] = ST as an anticancer agent in vitro; type: cell-based
[7] = Pharmacokinetics of ST in rats; type: in vivo, rat; conditions: for half-life: rat, in vivo
T84 cells [8] = test: 45Ca2+ transport (calcium influx); type: cell-based, human
Protocol: Exponentially growing T84 cells (40-80% confluent in 24-well plates) were incubated in media (S-MEM, Life Technologies, Rockville, Md.) containing low (300 μM) CaCl2 to maximize the signal-to-noise ratio for L-cis-diltiazem (L-DLT)-sensitive 45Ca2+ transport determinations. Cells were treated with ST, 8-br-cGMP, and/or L-DLT for the indicated times, followed by the addition of 1 μCi per well 45Ca2+ for the last 15 min. Incubations were terminated by washing four times in cold PBS buffer (145 mM NaCl/5 mM KCl/1 mM MgCl2/10 mM glucose/5 mM Hepes, pH 7.4) containing 0.1 mM EGTA, cells were solubilized with cold NaOH (0.1 M), and radioactivity was quantified in 100-μl aliquots.

[9] = tested on: human colorectal cancer cells; test: Association of cells with connective tissue proteins in vitro; type: cell-based; conditions: ST at 1 micromolar
Excerpt: Type IV collagen forms the connective tissue meshwork supporting the lamina propria and specifically serves to trap cells through specific interactions with beta integrins. Cancer cells evade this trap by diminishing their ability to bind to type IV collagen. […] Enhancing this interaction will prevent metastases by trapping cells in the laminapropria underlying epithelial cells in the intestine.

[10] = Pharmacokinetics of ST in man by allometric scaling and dosage calculation
Excerpt: An alternative approach is to provide the patient with continual intravenous dosing of ST, thereby maintaining the cytostatic effect through adjuvant chemotherapy, while minimizing any adverse effects associated with ST. To achieve therapeutic efficacy, the steady state concentration (Css) should be ≧10 EC50.

[11] = tested on: human colorectal cancer cells; test: Actin cytoskeleton organization (confocal microscopy, cell spreading); type: cell-based
Excerpt: ST prevented human colorectal cancer cells from organizing their actin cytoskeleton. […] The latter is a functional readout of the ability of cells to organize actin. Human colorectal cancer cells treated with ST cannot spread their bodies out in vitro. An inability to organize their actin cytoskeletons will prevent these cells from being able to migrate through tissues to metastasize.

rat colon = conditions: L-DLT 200 μM; cited from earlier work

Sequence of ST receptors (P25092 24-1073): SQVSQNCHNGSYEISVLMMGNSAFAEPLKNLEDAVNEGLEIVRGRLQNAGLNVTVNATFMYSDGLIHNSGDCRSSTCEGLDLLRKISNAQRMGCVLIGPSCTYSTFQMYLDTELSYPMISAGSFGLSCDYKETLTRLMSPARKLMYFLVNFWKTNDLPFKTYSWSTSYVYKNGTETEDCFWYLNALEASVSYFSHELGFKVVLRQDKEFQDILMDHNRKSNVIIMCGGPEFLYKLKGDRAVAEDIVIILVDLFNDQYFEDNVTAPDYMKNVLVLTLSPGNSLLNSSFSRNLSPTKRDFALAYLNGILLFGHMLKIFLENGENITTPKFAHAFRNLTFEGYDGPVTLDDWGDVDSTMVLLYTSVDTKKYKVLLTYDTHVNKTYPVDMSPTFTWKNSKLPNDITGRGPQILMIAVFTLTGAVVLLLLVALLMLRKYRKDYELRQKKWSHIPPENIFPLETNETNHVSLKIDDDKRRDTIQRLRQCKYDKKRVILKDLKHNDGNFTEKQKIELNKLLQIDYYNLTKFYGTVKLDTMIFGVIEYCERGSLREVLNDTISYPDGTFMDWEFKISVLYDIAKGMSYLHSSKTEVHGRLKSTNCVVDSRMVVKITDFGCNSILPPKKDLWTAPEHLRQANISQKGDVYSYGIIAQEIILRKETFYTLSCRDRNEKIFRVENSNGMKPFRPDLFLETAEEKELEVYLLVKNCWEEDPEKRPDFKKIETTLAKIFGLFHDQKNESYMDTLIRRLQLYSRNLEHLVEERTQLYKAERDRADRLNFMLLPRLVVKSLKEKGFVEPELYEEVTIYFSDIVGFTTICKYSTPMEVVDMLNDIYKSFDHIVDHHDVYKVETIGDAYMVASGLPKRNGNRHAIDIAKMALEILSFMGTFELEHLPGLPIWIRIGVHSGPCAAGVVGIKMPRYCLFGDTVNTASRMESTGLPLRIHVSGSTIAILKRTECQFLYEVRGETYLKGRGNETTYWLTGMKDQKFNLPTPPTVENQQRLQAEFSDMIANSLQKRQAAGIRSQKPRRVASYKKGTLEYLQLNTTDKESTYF

## Guanylin: 15 amino acid peptide with about 50% sequence homology to ST, identified in mammalian intestine (PNTCEICAYAACTGC; guanylin)
ST receptors
  Guanylate cyclase activation level, fold less than native ST: 10- to 100 fold

## CC(C)C[C@@H]1NC(=O)[C@H](CCC(=O)O)NC(=O)[C@@H]2CSSC[C@@H]3NC(=O)[C@H](C)NC(=O)[C@@H]4CCCN4C(=O)[C@H](CC(N)=O)NC(=O)[C@H](CSSC[C@H](NC(=O)[C@H](Cc4ccc(O)cc4)NC(=O)[C@H](Cc4ccccc4)NC(=O)[C@@H](NC(=O)[C@@H](N)CC(N)=O)[C@@H](C)O)C(=O)N2)NC(=O)[C@H](CSSC[C@@H](C(=O)N[C@@H](Cc2ccc(O)cc2)C(=O)O)NC(=O)CNC(=O)[C@H](C)NC3=O)NC1=O [ST]
[1]
  Induction of Ca2+-dependent K+ current (KCa), charybdotoxin-sensitive: induced
  Reversal potential derived from the induced current-voltage relationship: ~−70 mV
[1]; 500 nM ST, 2.5 mM 8-br-cGMP
  Induction of L-DLT-sensitive membrane current: induced membrane current; also recorded: induces an L-DLT-sensitive current
[1]; control, 1.8 mM CaCl2, n=5
  Induced current in the presence of [Ca2+]ext: 0.23±0.07 nA
[1]; n=6
  Reversal potential Em in the presence of ST: −66.3±3.6 mV
[1]; ramp pulses, holding potential −40 mV, mean±SEM
  Shift of the reversal potential ΔEm: −27.5±2.6 mV
T84 cells [2]; T84 cells expressing GC-C, ST 1 μM
  Inhibition of DNA synthesis / cell proliferation by ST: inhibits DNA synthesis; also recorded: inhibits cell proliferation
SW480 cells
  Inhibition of DNA synthesis by ST: not in tumor cells deficient in GC-C; also recorded: not in those cells that do not express GC-C
GCC-bearing cells
  Effect on cell cycle: prolongation of the cell cycle; also recorded: increases equally for all four phases of the cell cycle
[3]
  [cAMP]i accumulation: did not induce [cAMP]i accumulation
  [cGMP]i accumulation: induced the accumulation of [cGMP]i; also recorded: independent of [Ca2+]ext
[4]
  Induced current after removal of [Ca2+]ext: 0.02±0.01 nA
[5]
  Release of matrix metalloproteinase 9: inhibited the release
[6]
  IC50: 14 nM
[7]; in rats, an ECF agent
  Volume of distribution, Vd: 49 mls in rats (An ECF agent)
[7]; in rats, primarily renal
  Clearance: 14.9 hr^−1 in rats (Primarily renal)
[7]; α phase, read-out: Blood half-life for ST (rat), α
  half-life: 6 min
[7]; β phase, read-out: Blood half-life for ST (rat), β (converted)
  half-life: 161 min
T84 cells [8]; ST 1 μM, 20 min, 8-br-cGMP 5 mM, 40 min
  Influx of 45Ca2+ into colon cancer cells: induced influx
[9]
  Increase of association of cells with laminin or fibronectin: not with laminin or fibronectin
  Increase of association of cells with type IV collagen: 2 fold
[10]; 70 kg man, (0.693)(Vd)/(t1/2)
  Clearance Cl: 3.7 mL/min/kg
[10]; 70 kg patient, ECF volume
  Volume of distribution Vd of ST: 12 L
[10]; calculated
  t1/2 (α) in man: 24 min
[10]; man, α phase, allometric scaling theory
  Blood half-life for ST (man), α: 24 min
[10]; man, β phase, allometric scaling theory
  Blood half-life for ST (man), β: 667.2 min
[10]; used for infusion rate calculation
  t1/2 (α+β): 31.8 min
[11]; ST 1 micromolar, confocal microscopy
  Organization of actin cytoskeleton: prevented
[11]; in vitro
  Cell spreading: cannot spread

## COc1ccc([C@H]2Sc3ccccc3N(CCN(C)C)C(=O)[C@H]2OC(C)=O)cc1 (relative stereo) [L-DLT, L-cis-diltiazem]
[1]; 200 μM L-DLT
  Effect of L-DLT on ST-induced current and reversal potential shift: reversibly blocked; also recorded: reversed
[1]; n=4
  Reversal potential Em restored by L-DLT in the presence of ST: −39.5±5.2 mV
T84 cells [2]; 200 μM L-DLT, 8-br-cGMP 5 mM
  Effect of L-DLT on inhibition of proliferation by 8-br-cGMP: blocked
T84 cells [2]; with ST, 1 μM KT5823, 50 μM RP8pCPT-cGMP, 0.5 μM KT5720, 50 μM RP-cAMPs, 10 μM milrinone, 200 μM L-DLT, 20 μM BAPTA, 50 μM DTR, 1 μM PHE, 100 nM CTX
  Effect of agent on inhibition of proliferation induced by ST: prevented; also recorded: blocked
Rat colon
  Effect on ST-induced 45Ca2+ influx in the rat colon: abolished
T84 cells [8]; pretreatment 30 min, 250 μM L-DLT
  Effect of L-DLT on ST- and 8-br-cGMP-induced 45Ca2+ influx: inhibited; also recorded: abolished
